In ChEMBL document CHEMBL1145800, “QSAR and proteo-chemometric analysis of the interaction of a series of organic compounds with melanocortin receptor subtypes” (J Med Chem, 2003):

Experiments:
Melanocortin receptor 4 = Melanocortin receptor 4 (Homo sapiens, UniProt P32245); assay: Binding affinity towards Melanocortin 4 receptor, expressed as negative log of the Ki value
Melanocortin receptor 3 = Melanocortin receptor 3 (Homo sapiens, UniProt P41968); assay: Binding affinity towards Melanocortin 3 receptor, expressed as negative log of the Ki value
Chain of Melanocortin receptor 3 (P41968 whole entry): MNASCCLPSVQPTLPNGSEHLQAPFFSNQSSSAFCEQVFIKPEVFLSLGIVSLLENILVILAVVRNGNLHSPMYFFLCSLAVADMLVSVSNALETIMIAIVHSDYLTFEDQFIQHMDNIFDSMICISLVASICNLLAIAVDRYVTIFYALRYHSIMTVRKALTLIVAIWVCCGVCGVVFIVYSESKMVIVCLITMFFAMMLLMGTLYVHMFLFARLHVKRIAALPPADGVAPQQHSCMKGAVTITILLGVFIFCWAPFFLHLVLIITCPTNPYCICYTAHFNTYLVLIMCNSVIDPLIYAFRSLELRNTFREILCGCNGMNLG

[1] = target: Melanocyte-stimulating hormone receptor (Homo sapiens, UniProt Q01726); assay: Binding affinity towards Melanocortin 1 receptor, expressed as negative log of the Ki value
Chain of Melanocyte-stimulating hormone receptor (Q01726 whole entry): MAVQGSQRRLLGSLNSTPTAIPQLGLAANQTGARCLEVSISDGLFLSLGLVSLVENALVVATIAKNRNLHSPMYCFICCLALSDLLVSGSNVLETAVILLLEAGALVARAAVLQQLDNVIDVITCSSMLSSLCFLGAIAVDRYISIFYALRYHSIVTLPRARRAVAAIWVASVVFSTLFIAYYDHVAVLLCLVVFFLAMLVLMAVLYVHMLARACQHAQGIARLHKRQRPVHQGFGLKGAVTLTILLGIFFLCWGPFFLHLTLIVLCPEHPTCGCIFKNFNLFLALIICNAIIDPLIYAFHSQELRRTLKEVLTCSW

Melanocortin receptor 5 = Melanocortin receptor 5 (Homo sapiens, UniProt P33032); assay: Binding affinity towards Melanocortin 5 receptor, expressed as negative log of the Ki value
Chain of Melanocortin receptor 5 (P33032 whole entry): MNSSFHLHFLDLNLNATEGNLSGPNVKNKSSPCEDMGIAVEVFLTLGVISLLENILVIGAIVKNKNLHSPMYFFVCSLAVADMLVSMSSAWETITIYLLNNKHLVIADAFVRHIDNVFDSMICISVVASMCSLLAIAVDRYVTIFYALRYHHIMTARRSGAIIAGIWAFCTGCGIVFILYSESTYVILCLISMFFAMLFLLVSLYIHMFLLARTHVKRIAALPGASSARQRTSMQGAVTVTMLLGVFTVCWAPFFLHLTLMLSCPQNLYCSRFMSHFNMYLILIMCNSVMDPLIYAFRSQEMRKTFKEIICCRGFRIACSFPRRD

Chain of Melanocortin receptor 4 (P32245 whole entry): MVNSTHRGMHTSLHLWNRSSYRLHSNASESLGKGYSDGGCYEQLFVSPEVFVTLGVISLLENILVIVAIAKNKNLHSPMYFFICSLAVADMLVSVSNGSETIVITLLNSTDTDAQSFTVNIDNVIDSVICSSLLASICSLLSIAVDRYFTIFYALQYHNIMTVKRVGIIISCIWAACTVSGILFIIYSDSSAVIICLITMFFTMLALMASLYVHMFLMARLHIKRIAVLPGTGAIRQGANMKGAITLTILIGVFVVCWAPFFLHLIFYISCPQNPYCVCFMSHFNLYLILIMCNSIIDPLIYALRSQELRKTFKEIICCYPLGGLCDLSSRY

Ki (Melanocortin receptor 4) [µM]	Ki (Melanocortin receptor 3) [µM]	Ki [1] [µM]	Ki (Melanocortin receptor 5) [µM]	Structure (SMILES)
31.6	5.01	3.98	1000	N=C(N)NCCCNC(=O)[C@H](CCCN=C(N)N)NCc1ccc2ccccc2c1
25.1	50.1	0.631	39.8	NCCCNC(=O)[C@H](CNCc1c[nH]c2ccccc12)NCc1ccc2ccccc2c1
2	31.6	1.58	3.98	NCCCCCC(=O)N(Cc1ccc2ccccc2c1)Cc1cccc2ccccc12
5.01	7.94	0.631		NC(N)=NCCC[C@H](N)C(=O)N(Cc1ccc2ccccc2c1)Cc1cccc2ccccc12
